This is an account of results in patent US20170240522A1, “BENZOTHIOPHENE, BENZYLOXYBENZYLIDENE AND INDOLINE DERIVATIVES USEFUL FOR THE TREATMENT OF TUBERCULOSIS” (priority 2014, published 2017).

In test [1] the test system is several other mycobacteria and non-mycobacterial pathogens. The test is described as follows: REMA assay of non-Mtb strains. In kind it is cell-based.
The subject of the next test is Mtb transcriptome. Put plainly: RNA-seq and qRT-PCR of compound-treated Mtb. In kind it is cell-based, Mycobacterium tuberculosis. The note with it: RNA-seq, 5 μM. The protocol:
For the transcriptomic studies, bacteria were grown under the same conditions as for protein secretion assays. Drug exposure time was 8 hours with 5 μM of compound for RNA-seq experiments and confirmatory qRT-PCR. RNA was extracted with Trizol (Invitrogen) and treated with DNase I (Roche) prior to library preparation or generation of the cDNA template. cDNA was synthesized using the RevertAid First Strand cDNA Synthesis Kit (Fermentas) using random hexamer primer. cDNA corresponding to 10 ng of input RNA was used in each RT-PCR reaction supplemented with specific primer pairs (200 nM each) listed in Table S4 and SYBR-Green master mix (Applied Biosystems). Quantitative RT-PCR reactions were performed with the 7900HT Fast Real-Time PCR System (Applied Biosystems) with the following parameters: 50° C. for 2 min, 95° C. for 10 min, followed by 40 cycles of 95° C. for 15 s and 60° C. for 60 s. Melt curve analysis was used to confirm specific amplification for each primer pair. Unpaired Student's T-tests were used for statistical analyses.
For the RNA-seq library preparation 100 ng of total RNA were used in the TruSeq Stranded mRNA LT kit, according to the instructions provided by the manufacturer (Illumina). A small aliquot was analyzed on Qubit and Fragment Analyzer prior to sequencing on Illumina HiSeq using the TruSeq SR Cluster Generation Kit v3 and TruSeq SBS Kit v3. Data were processed with the Illumina Pipeline Software v1.82. RNA-seq data were deposited in the Gene Expression Omnibus (GEO) server at the National Center for Biotechnology Information (NCBI).
• All analyses in this study were carried out using the M. tuberculosis H37Rv annotation from the TubercuList database (http://tuberculist.epfl.ch/) (Lew et al., 2011). There are 4019 protein coding sequences (CDS) currently annotated in the genome, 73 genes encoding for stable RNAs, small RNAs and tRNAs. In order to quantify protein occupancy and transcription across the entire genome, 3080 intergenic regions (regions flanked by two non-overlapping CDS) were included, resulting in a total of 7172 features. • The single-ended sequence reads generated from RNA-seq experiments were aligned to the M. tuberculosis H37Rv genome (NCBI accession NC_000962.2) using Bowtie2 with default parameters (Langmead and Salzberg, 2012). Read counts for all annotated features were obtained with the htseq-count program (http://www.huber.embl.de/users/anders/HTSeq/doc/count.html). Regions where genes overlapped were excluded from counting. Reads spanning more than one feature were counted for each feature. Since the RNA library was strand-specific, the orientation of sequence reads had to correspond to the orientation of annotated features to be counted. Analysis of differential gene expression was carried out using the DESeq package (Anders and Huber, 2010).
For orientation: In qPCR the cycle at which signal appears reflects the starting amount.

Test [2] concerns Mtb expressing GFP in infected fibroblasts. In kind it is cell-based, Mycobacterium tuberculosis. The note with it: compound concentration 5 μM (FIG. 2D).
Another test relates to ATP-levels of Mtb. The test is described as follows: Quantification of intracellular ATP levels. It counts as cell-based, Mycobacterium tuberculosis. Particulars: 10 μM, 24 hours. The protocol:
Bacteria were grown for 24 hours in the presence of test compounds. The BacTiter-Glo microbial cell viability reagent (Promega) was used for the quantification of ATP according to the recommendations of the manufacturer. For EtBr uptake assays, bacteria were washed with PBS containing 0.05% Tween 80, OD600 was adjusted to 0.4 and 100 μl were pipetted into black 96 well plates. EtBr was added (4 μM final concentration) and fluorescence was read every 2 min. at 545/600 nm. Unpaired Student's T-tests were used for statistical analyses.

The next test has as its system Mtb-Erdman. The test is described as follows: Growth of Mtb in 7H9 broth. It counts as cell-based, Mycobacterium tuberculosis. Particulars: 25 μM.
The next test concerns THP-1 macrophages. The test is described as follows: Survival of Mtb-infected activated THP-1 macrophages. The note with it: activated THP-1, higher MOI, 10 μM. In kind it is cell-based, human.
The test system of a further test is GroEL. The note with it: BBH7 and BTP15 treatment.
The test system of test [3] is Mtb-GFP inside activated THP-1 cells. In kind it is cell-based, Mycobacterium tuberculosis. The note with it: activated THP-1, 10 μM.
The subject of a further test is EsxA. It counts as cell-based, Mycobacterium tuberculosis.
The next test has as its system ESX-1. The test is described as follows: ESX-1 inhibitory activity of inhibitors of mycobacterium virulence (Table VII). It counts as cell-based, Mycobacterium tuberculosis.

Experimental for GroEL: In brief, 30 ml of bacteria grown to mid-logarithmic phase (OD600 of 0.6 to 0.7) in Sauton's medium supplemented with 0.05% Tween 80 were centrifuged and resuspended in Sauton's medium without Tween. Compounds were added at concentrations as indicated and cells were grown further at 37° C. with shaking for 4 days. Cultures were harvested by centrifugation to obtain culture filtrates and cell pellets. Culture filtrates were concentrated 100-fold in 5-kDa cutoff Vivaspin columns (Sartorius). Cell lysates were prepared by bead beating bacterial pellets in lysis buffer with 100-μm glass beads.
For immunoblot analysis, 5 μg of protein were resolved by SDS-gel electrophoresis and transferred to nitrocellulose membranes. Membranes were blocked with TBS-buffer (3% milk powder) and incubated overnight with the desired primary antibody diluted in TNT-buffer supplemented with 1% BSA fraction V. Membranes were washed with TNT, incubated with the appropriate secondary antibody in TNT-BSA, washed again with TNT, and developed. GroEL2 was used as a lysis control for culture filtrates and as a loading control for cell lysates.

What is called MIC99 is an inhibitory concentration at the 99% level, which refers to growth in some studies and to a panel of isolates in others. Read a high MIC99 as weaker potency. Consider `CSC(=S)N/N=C(\C)c1ccc(OCc2ccc(F)cc2F)cc1` [BBH7, N′-{1-[4-(2,4-Difluoro-benzyloxy)-phenyl]ethylidene}-hydrazinecarbodithioic acid methyl ester], for which the MIC99 in test [1] was > 100 µM. In addition, in the test on Mtb transcriptome, the “upregulated genes (number)” value was 121 genes and the “upregulation of the metallothionein mymT” value worked out at 20 fold. Further, in the test on Mtb transcriptome (8 hours), the “differentially regulated genes (number)” value is 144 genes. Besides, the “GFP fluorescence of Mtb in infected fibroblasts” value in test [2] is “no fluorescence was detected”. The “mycobacterial ATP levels” value in the test on ATP-levels of Mtb is given as “not found to be reduced”. Moreover, the “growth inhibition of Mtb” value in the test with Mtb-Erdman is “no growth inhibition”. Also, in the test on THP-1 macrophages, the “protection of THP-1 cells from Mtb-induced cell death” value is on record as “protected THP-1 cells from Mtb-induced cell death”. The “GroEL in the culture filtrate (cell lysis)” value in the test on GroEL is reported as “not observed”. Besides, the intracellular bacterial load result in test [3] is on record as “greatly reduced the intracellular bacterial load”. Further, the EsxA secretion result in the test with EsxA is listed as “dose-dependent secretion inhibition”. Moreover, the Activity in the test with ESX-1 worked out at 97%.
